Consider 17 compounds from PubChem BioAssay AID328 (DTP/NCI, 2004).

This test concerns BDF1 mice, P388 leukemia ip, median survival T/C. Nature of the test: NCI In Vivo Anticancer Drug Screen. Data for tumor model P388 Leukemia (intraperitoneal) in B6D2F1 (BDF1) mice. As to conditions: endpoint: median survival time, higher = longer survival. The essentials:
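Compound-treated tumour-bearing mice were compared with vehicle-treated controls. Survival was recorded, and the value is the treated-group measurement divided by the control-group measurement (T/C).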

Where [1] appears, read: dose: 0.5 mg/kg/injection, schedule: Q01DX009 (ip), vehicle: saline.
[2] abbreviates: dose: 6.25 mg/kg/injection, schedule: Q01DX009 (ip), vehicle: saline.
The mark [3] stands for this setting: dose: 25.0 mg/kg/injection, schedule: Q01DX009 (ip), vehicle: saline.
[4] abbreviates: dose: 50.0 mg/kg/injection, schedule: Q01DX009 (ip), vehicle: saline.
Where [5] appears, read: dose: 100.0 mg/kg/injection, schedule: Q01DX009 (ip), vehicle: saline.
Setting [6] is: dose: 100.0 mg/kg/injection, schedule: Q01DX009 (ip), vehicle: saline with Tween-80.
The mark [7] stands for this setting: dose: 100.0 mg/kg/injection, schedule: Q04DX003 (ip), vehicle: saline with Tween-80.
[8] abbreviates: dose: 200.0 mg/kg/injection, schedule: Q01DX009 (ip), vehicle: saline with Tween-80.
Setting [9] is: dose: 200.0 mg/kg/injection, schedule: Q04DX003 (ip), vehicle: saline with Tween-80.
The mark [10] stands for this setting: dose: 400.0 mg/kg/injection, schedule: Q04DX003 (ip), vehicle: saline with Tween-80.
Where [11] appears, read: dose: 100.0 mg/kg/injection, schedule: Q01DX009 (ip), vehicle: Klucel (hydroxypropylcellulose) (HPC).
[12] abbreviates: dose: 100.0 mg/kg/injection, schedule: Q04DX003 (ip), vehicle: Klucel (hydroxypropylcellulose) (HPC).
Where [13] appears, read: dose: 200.0 mg/kg/injection, schedule: Q04DX003 (ip), vehicle: Klucel (hydroxypropylcellulose) (HPC).
Setting [14] is: dose: 400.0 mg/kg/injection, schedule: Q04DX003 (ip), vehicle: Klucel (hydroxypropylcellulose) (HPC).

Where “and” joins values, the source holds several entries; their conditions need not be identical. Identical values can stand only once. Inconclusive results and toxic doses are left out.

As to `COC(C(=O)C(O)C(C)O)C1Cc2cc3cc(OC4CC(OC5CC(O)C(O)C(C)O5)C(O)C(C)O4)c(C)c(O)c3c(O)c2C(=O)C1OC1CC(OC2CC(O)C(OC3CC(C)(O)C(O)C(C)O3)C(C)O2)C(O)C(C)O1` (centres undefined), the T/C (dose: 0.03 mg/kg/injection, schedule: Q01DX009 (ip), vehicle: saline) is 101 % of control; the T/C (dose: 0.06 mg/kg/injection, schedule: Q01DX009 (ip), vehicle: saline) is 106 % of control; the T/C (dose: 0.13 mg/kg/injection, schedule: Q04DX003 (ip), vehicle: saline) was 98 % of control; the T/C (dose: 0.25 mg/kg/injection, schedule: Q01DX009 (ip), vehicle: saline) was 150 % of control; the T/C (dose: 0.25 mg/kg/injection, schedule: Q04DX003 (ip), vehicle: saline) was 107 % of control; the T/C under setting [1] was 170 % of control. Moreover, the T/C reads like this: (dose: 0.5 mg/kg/injection, schedule: Q04DX003 (ip), vehicle: saline) 101 % of control; (dose: 1.0 mg/kg/injection, schedule: Q01DX009 (ip), vehicle: saline) 120 % of control.
For the compound `COc1ncnc2c1c(C#N)cn2C1OC(CO)C(O)C1O` (centres undefined), the T/C under setting [2] was 102 % of control; the T/C (dose: 12.5 mg/kg/injection, schedule: Q01DX009 (ip), vehicle: saline) is 102 % of control; the T/C under setting [3] is 102 % of control; the T/C under setting [4] is 95 % of control.
`COC(=O)C(C)CN1CCCCC1` (centres undefined): the T/C under setting [4] was 105 % of control; the T/C under setting [5] is 110 % of control; the T/C (dose: 200.0 mg/kg/injection, schedule: Q01DX009 (ip), vehicle: saline) is 110 % of control.
In the case of `NS(=O)(=O)c1ccc(Cl)cc1`, the T/C was 113 % of control under setting [3]; 109 % of control under setting [4]; 100 % of control (dose: 75.0 mg/kg/injection, schedule: Q04DX003 (ip), vehicle: saline); 86 % of control under setting [5]; 109 % of control (dose: 150.0 mg/kg/injection, schedule: Q04DX003 (ip), vehicle: saline); 109 % of control (dose: 300.0 mg/kg/injection, schedule: Q04DX003 (ip), vehicle: saline).
As for `Cn1nnc2nnc(-c3ccccc3)n21`, the T/C under setting [6] was 100 % of control; the T/C under setting [7] is 100 % of control; the T/C under setting [8] was 103 % of control; the T/C under setting [9] was 100 % of control; the T/C under setting [10] is 95 % of control.
`CC1(C)N=C(N)N=C(N)N1c1ccc(OCc2ccc(C(=O)Nc3cccc(S(=O)(=O)F)c3)cc2)c(Cl)c1`: the T/C was 206 % of control (dose: 6.25 mg/kg/injection, schedule: Q01DX009 (ip), vehicle: Klucel (hydroxypropylcellulose) (HPC)); 163 % of control (dose: 6.25 mg/kg/injection, schedule: Q04DX003 (ip), vehicle: Klucel (hydroxypropylcellulose) (HPC)); 247 % of control (dose: 12.5 mg/kg/injection, schedule: Q01DX009 (ip), vehicle: Klucel (hydroxypropylcellulose) (HPC)); 162 % of control and 184 % of control (dose: 12.5 mg/kg/injection, schedule: Q04DX003 (ip), vehicle: Klucel (hydroxypropylcellulose) (HPC)); 308 % of control (dose: 25.0 mg/kg/injection, schedule: Q01DX009 (ip), vehicle: Klucel (hydroxypropylcellulose) (HPC)); 186 % of control and 223 % of control (dose: 25.0 mg/kg/injection, schedule: Q04DX003 (ip), vehicle: Klucel (hydroxypropylcellulose) (HPC)). Further, the T/C (dose: 50.0 mg/kg/injection, schedule: Q01DX009 (ip), vehicle: Klucel (hydroxypropylcellulose) (HPC)) was 110 % of control; the T/C (dose: 50.0 mg/kg/injection, schedule: Q04DX003 (ip), vehicle: Klucel (hydroxypropylcellulose) (HPC)) was 263 % of control and 189 % of control; the T/C under setting [11] was 95 % of control; the T/C under setting [12] was 95 % of control and 119 % of control.
Turning to `N=C(N)Sc1cc(O)ccc1O`, the T/C reads like this: under setting [4], 109 % of control; (dose: 65.0 mg/kg/injection, schedule: Q01DX009 (ip), vehicle: saline) 115 % of control; under setting [5], 115 % of control.
Take `c1ccc(C2SCCSCCS2)cc1`: the T/C under setting [12] was 90 % of control, the T/C under setting [13] was 100 % of control and the T/C under setting [14] was 100 % of control.
Regarding `CCOC(=O)C(C(=O)OCC)=C(C)C`, the T/C was 100 % of control under setting [12]; 88 % of control under setting [13]; 150 % of control (dose: 400.0 mg/kg/injection, schedule: Q01DX009 (ip), vehicle: saline with Tween-80); 103 % of control under setting [14].
Turning to `COC(=O)C12Oc3ccc(-c4ccc5c(c4O)C(O)=C4C(=O)CC(C)C(O)C4(C(=O)OC)O5)c(O)c3C(O)=C1C(=O)CC(C)C2O` (centres undefined), the T/C is 100 % of control (dose: 0.39 mg/kg/injection, schedule: Q01DX009 (ip), vehicle: saline with Tween-80); 109 % of control (dose: 0.78 mg/kg/injection, schedule: Q01DX009 (ip), vehicle: saline with Tween-80); 100 % of control (dose: 0.78 mg/kg/injection, schedule: Q01DX009 (ip), vehicle: saline); 104 % of control and 109 % of control (dose: 1.56 mg/kg/injection, schedule: Q01DX009 (ip), vehicle: saline with Tween-80); 104 % of control and 109 % of control (dose: 3.13 mg/kg/injection, schedule: Q01DX009 (ip), vehicle: saline with Tween-80); 93 % of control (dose: 3.13 mg/kg/injection, schedule: Q01DX009 (ip), vehicle: saline). The T/C (dose: 6.25 mg/kg/injection, schedule: Q01DX009 (ip), vehicle: saline with Tween-80) was 101 % of control.
As for `CC1(C)CC(=O)C2OC2(C)C1` (centres undefined), the T/C reads like this: under setting [11], 100 % of control; under setting [12], 104 % of control; (dose: 200.0 mg/kg/injection, schedule: Q01DX009 (ip), vehicle: Klucel (hydroxypropylcellulose) (HPC)) 90 % of control; under setting [13], 95 % of control; (dose: 400.0 mg/kg/injection, schedule: Q01DX009 (ip), vehicle: Klucel (hydroxypropylcellulose) (HPC)) 109 % of control; under setting [14], 108 % of control.
`CN(c1ccccc1)S(=O)(=O)c1ccccc1`: the T/C under setting [7] is 95 % of control.
In the case of `O=C(NC(=O)c1c(F)cccc1F)Nc1ncc(Cl)cc1Cl`, the T/C runs as follows: (dose: 50.0 mg/kg/injection, schedule: Q01DX009 (ip), vehicle: saline with Tween-80) 90 % of control; under setting [6], 100 % of control; under setting [8], 90 % of control.
Turning to `CC(=O)CC(=O)Nc1ccc(N=Nc2ccccc2)cc1`, the T/C is 109 % of control under setting [7], 109 % of control under setting [9] and 119 % of control under setting [10].
In the case of `ClCCn1cnc2c(SCc3ccccc3)ncnc21`, the T/C is 100 % of control under setting [7], 100 % of control under setting [9] and 100 % of control under setting [10].
For `Nc1nc(N)c2cc(CNc3ccc(C(=O)NC(CC(=O)O)C(=O)O)cc3)ccc2n1` (centres undefined), the T/C (dose: 0.11 mg/kg/injection, schedule: Q01DX009 (ip), vehicle: saline) was 112 % of control; the T/C (dose: 0.38 mg/kg/injection, schedule: Q01DX009 (ip), vehicle: saline) is 154 % of control; the T/C under setting [1] was 183 % of control; the T/C (dose: 1.0 mg/kg/injection, schedule: Q04DX003 (ip), vehicle: saline sonified) is 213 % of control; the T/C (dose: 2.0 mg/kg/injection, schedule: Q04DX003 (ip), vehicle: saline sonified) was 204 % of control; the T/C (dose: 5.5 mg/kg/injection, schedule: Q04DX003 (ip), vehicle: saline sonified) was 161 % of control. Moreover, the T/C was 95 % of control under setting [2]; 177 % of control (dose: 8.25 mg/kg/injection, schedule: Q04DX003 (ip), vehicle: saline sonified); 96 % of control (dose: 25.0 mg/kg/injection, schedule: Q04DX003 (ip), vehicle: saline sonified).
On to `NC(c1ccccc1)c1c(O)ccc2ccccc12` (centres undefined), for which the T/C runs as follows: (dose: 100.0 mg/kg/injection, schedule: Q01DX009 (ip), vehicle: gum acacia) 103 % of control; (dose: 100.0 mg/kg/injection, schedule: Q04DX003 (ip), vehicle: gum acacia) 109 % of control; (dose: 200.0 mg/kg/injection, schedule: Q01DX009 (ip), vehicle: gum acacia) 107 % of control; (dose: 200.0 mg/kg/injection, schedule: Q04DX003 (ip), vehicle: gum acacia) 122 % of control; (dose: 400.0 mg/kg/injection, schedule: Q01DX009 (ip), vehicle: gum acacia) 117 % of control; (dose: 400.0 mg/kg/injection, schedule: Q04DX003 (ip), vehicle: gum acacia) 122 % of control.
